Data published in article PMC4912613, “A broad analysis of resistance development in the malaria parasite” (Nature Communications, 2016).
pEC50: −log10 of the molar value. Like-named read-outs stand apart in the source and are kept apart here.

Assays:
hsp90 (D88Y, parent Dd2) = experiment: Cross-resistance EC50 assay, hsp90; format: cell-based; settings: Plasmodium falciparum, SYBR green 72 hour assay, synchronized parasites, 384-well format
Excerpt: (§1) To evaluate potential overlapping activity against known antimalarial drug targets, we performed dose-response studies with each compound against our assembled set of drug-resistant lines and their corresponding parents, in an asexual blood stage proliferation assay (Table 1). Comparisons were made to the drug-sensitive strain 3D7 when a parent was unavailable (TM90C2A, W2 and Dd2). As laboratories conducted EC50 assays with different strains and protocols, all comparisons were made between assays from the same laboratory and under the same assay conditions. Compounds displaying >5-fold EC50 shifts relative to the parent or sensitive strain were flagged as having potentially non-novel targets. Average fold shifts per strain ranged from 0.82 to 2.34, with a median of 1.23 indicating there was not common resistance to any one resistant clone. No resistance patterns were observed when classifying the compounds based on chemical structure, but this was not surprising given the diversity of compounds chosen. On the other hand, given that these confirmed compounds were derived from larger unconfirmed hit lists to which some filtration criteria may have been applied (for example, elimination of obvious dihydrofolate reductase inhibitors[32]), some[10][11][12][13] pre-existing bias may exist in the set. […]
(§2) Alternatively, a SYBR Green-based proliferation approach was used for the 72-h assay, as previously described. Briefly, a culture of either synchronized or asynchronous parasitized RBCs (0.3% parasitemia and 4% haematocrit) in screening medium (identical to supplemented medium above except no serum was added) was exposed to serial drug dilutions. Plates were incubated at 37 °C and gassed with 93% N2, 4% CO2 and 3% O2 for 72 h. Following incubation, 10 × SYBR Green I (Invitrogen; supplied in 10,000 × concentration) in lysis buffer ([…], 5 mM EDTA, 0.16% Saponin wt per vol and 1.6% Triton X vol per vol) was added to the wells and the plates were incubated overnight at room temperature before plate reading. EC50 assays were repeated three times, taking the average EC50 value from each assay set, and removing any outliers using a single iteration of Grubbs' test, eliminating values with z-scores above the critical z-value (α=0.05). The raw EC50 values for synchronized parasites assayed in a 384-well format are listed in Supplementary Data 4. The raw EC50 values for asynchronous parasites assayed in a 96 or 1536-well format are listed in Supplementary Data 5.
(§3) EC50 values for each strain were compared with those of the corresponding parent strain to determine fold-shift changes and identify resistance. To minimize the cause variance between assays, all comparisons were conducted between strains assayed under identical conditions. A one-way ANOVA followed by a Dunnet's post-test was conducted in GraphPad Prism to identify significant changes between the parent and resistant strain.

PfCRT-Q352R (parent Dd2) = experiment: Cross-resistance EC50 assay, PfCRT-Q352R; format: cell-based; settings: Plasmodium falciparum, DD2, 72 h, read-out: PfCRT:Q352R (Dd2 Parent) Average EC50
Excerpt: as §1, §2, §3

W2 = experiment: Cross-resistance EC50 assay, W2 parent; format: cell-based, Plasmodium falciparum; settings: for pEC50: Plasmodium falciparum, 48 h, read-out: W2F6 (PARENT) Average EC50
Excerpt: Multidrug resistance alleles, including mutations in P. falciparum chloroquine resistance transporter (pfcrt) and P. falciparum multi-drug resistance transporter 1 (pfmdr1) are very common in field isolates. Therefore, we sought to assess the degree to which pre-existing resistance alleles would contribute to a loss of potency for this diverse collection of small molecule compounds. Fifteen clones derived from three main parent lines were chosen to maximize diversity in mutated pathways and genetic backgrounds, thus representing the variety of resistance seen in the field: 3D7 (ref. [23]), W2 (ref. [24]) or Dd2 (ref. [25]). The 3D7 line originates from the clone of a Netherlands clinical isolate strain[23][26] and is generally considered to be drug sensitive, though it does convey resistance to sulfadoxine. Conversely, W2 (ref. [24], [27]) and Dd2 (ref. [25]) are multi-drug-resistant lines originating from the Indochina III/CDC isolate, which contain point mutations in pfcrt as well as amplifications in pfmdr1 and GTP cyclohydrolase.
(§4) To evaluate potential overlapping activity against known antimalarial drug targets, we performed dose-response studies with each compound against our assembled set of drug-resistant lines and their corresponding parents, in an asexual blood stage proliferation assay (Table 1). Comparisons were made to the drug-sensitive strain 3D7 when a parent was unavailable (TM90C2A, W2 and Dd2). As laboratories conducted EC50 assays with different strains and protocols, all comparisons were made between assays from the same laboratory and under the same assay conditions. Compounds displaying >5-fold EC50 shifts relative to the parent or sensitive strain were flagged as having potentially non-novel targets. Average fold shifts per strain ranged from 0.82 to 2.34, with a median of 1.23 indicating there was not common resistance to any one resistant clone. No resistance patterns were observed when classifying the compounds based on chemical structure, but this was not surprising given the diversity of compounds chosen. On the other hand, given that these confirmed compounds were derived from larger unconfirmed hit lists to which some filtration criteria may have been applied (for example, elimination of obvious dihydrofolate reductase inhibitors[32]), some[10][11][12][13] pre-existing bias may exist in the set.
(§5) The 48-h assay was carried out in a 96-well format following standard methods using the ^3H-hypoxanthine incorporation assay. The raw EC50 values corresponding to this assay can be found in Supplementary Data 3. Briefly, this assay relies on the parasite incorporation of labelled hypoxanthine that is proportional to P. falciparum growth. A culture of parasitized RBCs (0.5% parasitemia with a percentage of ring stage higher than 70% of total parasitemia, 2.0% haematocrit) in RPMI-1640, […] and 5 μM hypoxanthine was exposed to drug serial dilutions. Plates were incubated for 24 h at 37 °C, 5% CO2, 5% O2 and 90% N2. After 24 h of incubation, ^3H-hypoxanthine was added and plates were incubated for an additional 24-h period. After that, parasites were harvested on a glass fibre filter using a TOMTEC Cell Harvester 96. Filters were dried and melt-on scintillator sheets were used to determine the incorporation of ^3H-hypoxanthine. Radioactivity was measured using a microbeta counter. Data were normalized using the incorporation of the positive (parasitized RBCs without drug) and negative (same culture with artesunate at 2 μM) controls. All assays were conducted in triplicate using three independently grown cultures, and EC50 values were determined using the XLfit add-in module for Excel (version 2.3.1) from Grafit (version 5.3.1.3), where parameter h is the assay hill slope, x is the compound concentration and y is the inhibition of growth effect. The XLfit equation is: […]
Alternatively, a SYBR Green-based proliferation approach was used for the 72-h assay, as previously described. […]

P. falciparum strain 3D7 = experiment: Asexual blood stage 3H-hypoxanthine incorporation assay, 3D7; format: cell-based, Plasmodium falciparum; settings: Plasmodium falciparum
Procedure: as §5

[1] = test system: NITD609-R2 (PfATP4 T418N and P990R, parent Dd2); experiment: Cross-resistance EC50 assay, NITD609-R2; format: cell-based; settings: Plasmodium falciparum, SYBR green 72 hour assay, asynchronized parasites, 96-well or 1536-well format
Excerpt: as §1, §2, §3

[2] = test system: TM90C2A (DHFR, folate pathway; compared with 3D7); experiment: Cross-resistance EC50 assay, TM90C2A; format: cell-based; settings: Plasmodium falciparum, 48 h, read-out: TM90C2A (3D7 Parent) Average EC50
Excerpt: as §4, §5, §3

[3] = 3D7, asexual stage, P. falciparum 3D7, read-out: 3D7 EC50

SMILES	pEC50 (hsp90 (D88Y, parent Dd2); strain HSP90 (Dd2 parent))	pEC50 (PfCRT-Q352R (parent Dd2))	pEC50 (W2)	EC50 fold-shift, W2 compared with 3D7 (W2; loss of efficacy) [×]	pEC50 (P. falciparum strain 3D7; [3])	EC50 [1] [µM]	pEC50 [2]	pEC50 (P. falciparum strain 3D7; 3D7, text value, read-out: asexual stage EC50)	pEC50 (hsp90 (D88Y, parent Dd2); DD2, HSP90 strain)	potency against W2 strains (W2; compared with 3D7)
O=C(Nc1ccsc1C(=O)NC1CCCCC1)c1ccc(F)cc1 [MMV665939]	5.66	5.94	5.01	9.5	5.98	1.4	5.87			
CCN(CC)CCn1c(=N)n(CC(O)c2ccc(Cl)c(Cl)c2)c2ccccc21.Cl (stereo not drawn) [MMV000248]	6.48	6.48	6.22		6.51	0.252	6.33			
Cc1ccc(Oc2ncccc2C(=O)Cc2cccc3cccnc23)c(C)c1 [MMV020746]	6.70	6.85	6.61		7.12	2.14	6.70			
CN(C)Cc1ccc(-c2cc3c(-c4ccc(CN(C)C)cc4)ccnc3[nH]2)cc1.O=C(O)C(F)(F)F [MMV022224]	6.46	6.49	6.39		6.41	0.406	6.13			
OC(CNC1CCCCC1)Cn1c2ccc(I)cc2c2cc(I)ccc21 (stereo not drawn) [MMV665882]	7.60	7.33	7.59		7.14	0.046	6.68			
Nc1ccc(-c2nc3cc(Oc4ccc(Oc5ccc6[nH]c(-c7ccc(N)cc7)nc6c5)cc4)ccc3[nH]2)cc1 [MMV011895]	6.51	6.69	6.55		6.80	0.56	6.45			
CC(C)(C)OC(=O)N1CCN(c2ccccc2NC(=O)c2cccc(C(F)(F)F)c2Oc2ccc(F)cc2)CC1 [MMV030666]	6.49	6.50	6.53		6.31	0.221	6.26			
O=C(Nc1ccc(Cl)c(Cl)c1)Nc1ccc(Cl)c(Cl)c1 [MMV665852]	6.05	6.04	5.80		5.93	1.75	6.25			
CC(NCc1ccccc1)c1cc(Cl)ccc1O (stereo not drawn) [MMV665789]	6.25	6.24	6.83		5.90	0.261	5.83			
FC(F)(F)c1cccc(Nc2nc3ccccc3nc2Nc2cccc(C(F)(F)F)c2)c1 [MMV665794]	6.85	6.94	6.74		7.00	0.321	7.14			
COc1cc(C(=O)ON=C(N)Cc2cccc3ccccc23)cc(OC)c1OC [MMV666687]	6.55	6.49	6.33		6.46	0.535	6.74			
Nc1ccc(-c2nc3cc(Cc4ccc5[nH]c(-c6ccc(N)cc6)nc5c4)ccc3[nH]2)cc1 [MMV665943]	6.37	6.39	6.72		6.50	0.334	6.53			
COc1ccc(-c2nc(NC(=O)Cc3ccc4c(c3)OCCO4)sc2C)cc1 [MMV019719]	6.55	6.61	6.84		6.79	0.328	6.68			
COc1cc(-c2nc(-c3ccccc3)c(-c3ccccc3)[nH]2)cc(OC)c1O [MMV020750]	6.15	6.14	5.73		6.47	1.22	6.17			
CN(C)S(=O)(=O)c1cc(-c2ccc3nccc(-c4cccc(S(N)(=O)=O)c4)c3c2)cnc1N [MMV024038]	6.89	6.97	6.49			0.958	6.71	6.64		
COC(=O)c1ccc(C2C3=C(O)CC(c4ccc(F)cc4)CC3=Nc3ccccc3N2C(=O)c2ccccc2)cc1 (stereo not drawn) [MMV011438]	6.90	6.76	6.19		6.37	0.306	6.49			
Cc1c(C)n(Cc2ccc(F)cc2)c2ccc(C(=O)NCc3ccco3)cc12 [MMV008149]	6.72	6.86	6.09		6.11	0.934	6.04			
Cc1ccc(S(=O)(=O)n2cc(-c3ccnc(N)c3)c3cc(Br)cnc32)cc1 [MMV024114]	6.08	6.30	5.98		6.58	1.86	5.98			
COc1ccc(NC(=O)N2CCCCN3[C@H](CN)[C@H](c4ccc(C#Cc5ccccc5)cc4)[C@@H]3C2)cc1 [BRD1095]		7.92			7.40	0.001			7.77	
COc1ccc2c3c([nH]c2c1)[C@H](CO)N(C(C)=O)CC31CCN(C(=O)Nc2ccccc2F)CC1 [MMV673482]		7.15	6.75			0.007	6.45		7.03	
c1cc(-c2cnc3ccc(-c4ccc(N5CCOCC5)cc4)nn23)ccn1 [MMV668311]		7.20	7.54		7.32	0.016	7.07			
CN(C)CCCN(C)C(=O)C1Cc2cc(-c3ccccc3)ccc2N1S(=O)(=O)c1ccccc1 (stereo not drawn) [MMV028895]	6.48	6.62	6.82			2.17	6.60			maintained potency
